# Assay results published in patent US20100137344A1, “INDUCTION OF ANALGESIA IN NEUROPATHIC PAIN” (University Court of the University of Edinburgh, priority 2006, published 2010).
# Key:
# Assay type in all cases: in vivo, rat
# naïve rats [1] = experiment: Intrathecal application in naïve rats, behavioural reflex testing (PWL, PWT); details: naïve animals, cinnamaldehyde 75 nmol, allicin 25 nmol
# Method: (§1) Thermal sensitivity was assessed by measuring paw withdrawal latency (PWL, s) in response to a noxious thermal stimulus (Hargreaves' thermal stimulator, Linton Instrumentation, Diss, UK) directed to the hindpaw mid-plantar glabrous surface. Mechanical sensitivity was recorded as the paw withdrawal threshold (PWT, mN/mm^2) to calibrated von Frey filaments (Stoelting, Ill., US), as previously described^[39]. Sensitivity to noxious cold was assessed by placing animals in a waterbath with an aluminium floor containing 1 cm deep 4° C. water and counting the time the paw was held suspended over a 20 s period.
# (§2) The following drugs were applied intrathecally in a 50 μl volume of saline-based vehicle at 37° C.: icilin (2.5-200 μM in saline with 0.2% dimethylformamide, DMF), LY 341495 (100 μM in saline), UBP 1112 (200 μM in saline), 2R,4R-APDC ((2R, 4R)-4-aminopyrrolidine-2,4-dicarboxylate), 300 μM in saline), ACPT-III ((1R,3R,4S)-1-aminocyclopentane-1,3,4-tricarboxylic acid), 3 mM in saline), AP-4, ((L-(1)-2-amino-4-phosphonobutyric acid), 3 mM in saline), naloxone (0.5 mM in saline), NMDA (75 μM in saline) and ACPC (1-aminocyclopropanecarboxylic acid, 15 μM in saline) (Tocris Cookson, Bristol, UK), (−)-menthol (1R,2S,5R-(−)-menthol, 4 mM in saline), cinnamaldehyde (1.5 mM in saline) and Ruthenium Red (5 μM in saline) (Sigma-Aldrich Co. Ltd, UK) and allicin (0.5 mM in saline with 0.5% DMF) and diallyl disulphide (DADS, 1 mM in saline with 0.5% DMF) (LKT Laboratories Inc., St Paul, Minn., USA). Drugs were injected into the L5/6 intrathecal space under brief halothane anaesthesia, using a 25-gauge needle microsyringe (BD Biosciences, Oxford, UK), as described previously^[39] in animals that were at peak levels of behavioural sensitisation. Behavioural reflex testing commenced 15 min following injection to allow recovery from anaesthesia^[40,41,42] and continued every 5 min thereafter until readings returned to baseline levels (n=6 in each case). We, and others^[40,41,42] find complete recovery from anaesthetic by 15 minutes. All appropriate controls were carried out to eliminate the possibility of effects due to vehicle or to injection procedure.
# (§3) The TRPM8 channel activators, icilin and (−)-menthol were tested in CCI and naïve animals. The effects of icilin were additionally assessed in animals with CFA-induced inflammation or with lysolecithin-induced demyelination. Icilin was also co-administered with the μ-opioid receptor antagonist naloxone, the Group II metabotropic glutamate receptor (mGluR) antagonist, LY 341495, or the Group III mGluR antagonist, UBP 1112. The effects of these antagonists alone as well as effects of the Group II mGluR agonist, 2R,4R-APDC and the Group III mGluR agonists, ACPT-III and AP-4, were assessed in CCI animals. The TRPA1 channel activator, cinnamaldehyde, alone and with icilin, was tested in CCI animals and in naïve animals. Further TRPA1 channel activators, allicin and diallyl disulphide were assessed in naïve animals. Both icilin and cinnamaldehyde effects in CCI animals were also investigated in the additional presence of Ruthenium Red.
# naïve rats [2] = experiment: Topical application to paws of naïve rats, behavioural reflex testing (PWL, PWT); details: topical cinnamaldehyde 1.5 mM; bilateral
# Method: as §1
# (§4) Icilin was applied at concentrations of 2.5-500 μM (in water with 0.2% DMF), by placing CCI or naïve rats unrestrained for 5 min in a 1 cm deep waterbath (sufficient to cover paws), which was thermostatically controlled to a temperature of 30° C., or by very lightly anaesthetising rats and immersing hindpaws in small tubes containing 5 ml icilin (500 μM-5 mM, with a vehicle of 45% dimethylformamide in 0.2% aqueous Tween 80) for 5 min, followed by sensory testing for 60-80 mins. The effects of (−)-menthol and its stereoisomers isomenthol (1S,2R,5R-menthol,) and (+)-menthol (1S,2R,5S(+)-menthol) (4-16 mM in 80% ethanol) were also assessed. Relevant vehicles were always assessed in similar experiments. As a contrast, the effect of cinnamaldehyde (1.5 mM in water) and the effect of cinnamaldehyde with additional icilin (80 μM in water with 0.2% DMF) were assessed in naïve animals. The effects of icilin (80 μM) were further assessed in CCI animals that had undergone antisense and mis-sense treatment for knockdown of TRPM8 or immediately following intrathecal injection of either LY 341495 or UBP 1112. […] The effects of brief paw immersion at different temperatures (10-22° C. for 5 min) on CCI rats were assessed by mechanical testing. The effects of intrathecal LY 341495 or UBP 1112 on the reversal of ipsilateral sensitisation in CCI following a 16° C. cool challenge for 5 min were measured. Reflex testing commenced 5 minutes following challenge, unless animals had been anaesthetised, in which case 15 minutes was allowed for recovery. Six replicate animals were tested in all pharmacological experiments.
# [3] = tested on: rats with chronic constriction injury (CCI) to sciatic nerve; experiment: Intrathecal application in CCI rats, behavioural reflex testing (PWL, PWT); details: for mean percentage reversal of sensitisation by (−)-menthol with antagonist, PWL / mean percentage reversal of sensitisation by (−)-menthol with antagonist, PWT: (−)-menthol 200 nmol plus intrathecal antagonist, 20-30 minutes post-injection; for effect on analgesia by intrathecal icilin: LY 341495 5 nmol, UBP 1112 10 nmol co-administered with icilin 10 nmol; for effect of antagonist alone: intrathecal, data not shown
# Method: Pain models were generated under halothane anaesthesia (Zeneca, Cheshire, UK). For the chronic constriction injury (CCI) model of neuropathic pain, four ligatures were tied loosely to constrict the sciatic nerve at mid-thigh level (as described previously^[39]). An inflammatory pain model was generated by injecting 100 μl of Complete Freund's Adjuvant (CFA, Sigma-Aldrich Ltd) into the ventral surface of the right hindpaw^[39]. A model of peripheral demyelination-induced pain was produced by focal application of lysolecithin to the sciatic nerve^[40]. Peak behavioural sensitisation was observed post-surgically between days 10-16 for CCI, 1-3 for CFA, and 7-14 for lysolecithin, when pharmacological and electrophysiological experiments and tissue removal were conducted.
# as §1, §2, §3
# [4] = tested on: rats sensitised by the TRPA1 activator cinnamaldehyde; experiment: Cinnamaldehyde-induced sensitisation and its reversal by icilin (PWL, PWT); details: difference from prior baseline, no icilin
# Method: as §1, §2, §3
# Icilin was applied at concentrations of 2.5-500 μM (in water with 0.2% DMF), by placing CCI or naïve rats unrestrained for 5 min in a 1 cm deep waterbath (sufficient to cover paws), which was thermostatically controlled to a temperature of 30° C., or by very lightly anaesthetising rats and immersing hindpaws in small tubes containing 5 ml icilin (500 μM-5 mM, with a vehicle of 45% dimethylformamide in 0.2% aqueous Tween 80) for 5 min, followed by sensory testing for 60-80 mins. The effects of (−)-menthol and its stereoisomers isomenthol (1S,2R,5R-menthol,) and (+)-menthol (1S,2R,5S(+)-menthol) (4-16 mM in 80% ethanol) were also assessed. Relevant vehicles were always assessed in similar experiments. As a contrast, the effect of cinnamaldehyde (1.5 mM in water) and the effect of cinnamaldehyde with additional icilin (80 μM in water with 0.2% DMF) were assessed in naïve animals. […]
# dorsal horn neurons = experiment: Extracellular recordings of single spinal dorsal horn neurons in CCI animals (brush-evoked firing)
# Method: Peripheral: Recordings of saphenous (sensory) nerve were made in naïve animals (n=7) to assess the effects of topical icilin on primary afferents. In addition, recordings were carried out on animals which had undergone TRPM8 antisense or mis-sense treatment beginning 4-5 days previously. Rats were anaesthetised (with 0.6 ml 25% urethane/100 g, i.p.) and the saphenous nerve was exposed and dissected from its associated vein and artery. Further dissection under liquid paraffin enabled identification of afferent preparations comprising a small number of fibres. The conduction velocity of single identified afferent fibres was determined using bipolar electrodes and the peripheral stimulus technique^[43]. Following isolation of preparations, icilin (200 μM in water with 0.2% DMF), (−)-menthol (4 mM in 25% ethanol) resiniferatoxin (1 mM in ethanol) or vehicle alone were applied to the hindlimb receptive fields and neuronal responses recorded using the Chart programme (version 3.6). Central: Recordings of spinal dorsal horn neurons were made in CCI animals, as described previously^[39]. Following halothane induction, the jugular vein and trachea were canulated and intravenous anaesthetic delivered: α-chloralose ([…], Fisher) and urethane ([…], Sigma), with small supplementary doses of α-chloralose as required throughout the experiment. Core body temperature was maintained at 37-38° C. by means of a thermostatically controlled heated blanket. The animal was placed in a stereotaxic frame, and the thoracolumbar spinal column was supported using three pairs of swan-necked clamps. A laminectomy was performed at L2-L5, and agar (2% in saline at 37° C.) was delivered over exposed cord to increase mechanical stability. Above the recording region the agar and spinal cord dura were removed and liquid paraffin poured into the pool. Extracellular recordings were made from single multireceptive neurons in laminae I-IV through the centre barrel of a seven-barrelled glass microelectrode filled with 4M NaCl (tip-diameter […], DC resistance 5-8 MΩ). The receptive fields of hair-follicle innervated neurons on the distal hindlimb were identified by an innocuous brush stimulus^[39]. Icilin (200 μM in water with 0.2% DMF) was applied peripherally to the receptive field of individual recorded neurons, and the effect on neuronal response to a rotating brush was recorded and analysed using Spike2 programme (Version 3.2, CED). The Group III mGluR antagonist UBP 1112 (20 mM in water), pH 8.5, and control 1M NaCl, pH 8.5 were ionophoresed from the side barrels of the electrode using currents of between 20 nA and 80 nA (Neurophore BH2 ionophoresis system, Medical Systems, Great Neck, N.Y.) to measure effects on neuronal response to icilin.
# [5] = tested on: rats with chronic constriction injury (CCI); experiment: Cooling (16° C.)-induced analgesia in CCI rats with intrathecal mGluR antagonists; details: skin cooling to 16° C.; intrathecal LY 341495 5 nmol or UBP 1112 10 nmol
# Method: as §4, with “Reflex testing commenced 5 minutes following challenge, unless animals had been anaesthetised, in which case 15 minutes was allowed for recovery. Six replicate animals were tested in all pharmacological experiments.” left out
# [6] = tested on: rats with chronic constriction injury (CCI) to sciatic nerve; experiment: Topical application to paws of CCI rats, behavioural reflex testing (thermal PWL, mechanical PWT); details: icilin 200 μM topical; mGluR antagonists intrathecally
smiles,measurement,setting,value
O=CC=Cc1ccccc1 [cinnamaldehyde],reduction in PWL,naïve rats [1]; diallyl disulphide 50 mmol,36.9±7.9%
same,reduction in PWT,naïve rats [1]; diallyl disulphide 50 mmol,41.9±6.7%
same,mean decrease in PWL,naïve rats [2],32.0±8.6%
same,mean decrease in PWT,naïve rats [2],20.2±8.2%
same,reflex responsiveness in thermal and mechanical tests,"[3]; cinnamaldehyde 75 nmol intrathecal, contralateral as well as ipsilateral to nerve injury",significantly increased reflex responsiveness
same,PWL (s) difference from control (no drug),[4]; cinnamaldehyde intrathecal,5.9 ± 0.9 s
same,PWT (mN/mm^2) difference from control (no drug),[4]; cinnamaldehyde intrathecal,2022.6 ± 375.4 mN/mm^2
same,PWL (s) difference from control (no drug),[4]; cinnamaldehyde topical,5.0 ± 1.5 s
same,PWT (mN/mm^2) difference from control (no drug),[4]; cinnamaldehyde topical,1002.0 ± 316.8 mN/mm^2
Cc1cc(C(C)(N)C(=O)O)ccc1P(=O)(O)O (stereo not shown) [UBP 1112],brush-induced firing rate with icilin plus UBP 1112,"dorsal horn neurons; UBP 1112 ionophoresed at 20-60 nA, icilin 200 μM topical",80.2±9.3 % of control values
same,effect of UBP 1112 alone on neuronal responses,dorsal horn neurons; ionophoresis,had no effect alone
same,mean percentage reversal of ipsilateral CCI-induced reductions in PWT caused by cooling,[5],0.0±0.0%
same,effect on reversal of thermal and mechanical sensitisation by topical icilin,[6],prevented
same,"mean percentage reversal of sensitisation by (−)-menthol with antagonist, PWL",[3],9.2±6.9%
same,"mean percentage reversal of sensitisation by (−)-menthol with antagonist, PWT",[3],0.0±0.0%
same,effect on analgesia by intrathecal icilin,[3],prevented the effect of icilin
same,effect of antagonist alone,[3],Neither LY 341495 nor UBP 1112 had any effects alone
N[C@](CC1c2ccccc2Oc2ccccc21)(C(=O)O)[C@H]1C[C@@H]1C(=O)O [LY 341495],mean percentage reversal of ipsilateral CCI-induced reductions in PWT caused by cooling,[5],0.0±0.0%
same,effect on reversal of thermal and mechanical sensitisation by topical icilin,[6],prevented
same,"mean percentage reversal of sensitisation by (−)-menthol with antagonist, PWL",[3],22.0±6.9%
same,"mean percentage reversal of sensitisation by (−)-menthol with antagonist, PWT",[3],7.1±7.1%
same,effect on analgesia by intrathecal icilin,[3],prevented the effect of icilin
same,effect of antagonist alone,[3],Neither LY 341495 nor UBP 1112 had any effects alone
C=CCSSCC=C [diallyl disulphide],reduction in PWL,naïve rats [1]; diallyl disulphide,25.9±7.0%
same,reduction in PWT,naïve rats [1]; diallyl disulphide 50 mmol,28.5±6.2%
